According to US4061542A, “2-Methyl-L-arginine produced by cultivating streptomyces strain” (Hoffmann-La Roche Inc., priority 1976, dated 1977):
Read-outs that look alike come from different tables or passages of the source.

How the values were obtained:
[1] = Acute toxicity (LD50) in mice; assay type: in vivo; details: mouse, in vivo, mice
males [2] = details: administered to males; comparison substance; cited from earlier work
ornithine decarboxylase [3] = details: in words; comparison substance; cited from earlier work
spermidine production [4] = details: in words; comparison substance; cited from earlier work
males [5] = assay: Anti-fertility activity when administered to males; assay type: in vivo; details: in words, no test data given
spermidine production [6] = assay: Suppression of spermidine production; details: in words; no test data given
ornithine decarboxylase [7] = assay: Inhibition of ornithine decarboxylase; assay type: biochemical; details: in words; no test data given
[8] = system: Bacillus sp. (ATCC 27860); assay: Antibiotic activity against Bacillus sp. (ATCC 27860); assay type: cell-based
Source text: (§1) The anti-microbial properties of the compound of the formula I and its salts are shown by the paper-disc agar-diffusion assay as described by Scannell et al. J. Antibiotics 25: 179-184 (1972). In this assay, Escherichia coli B as test organism, the minimal agar medium described by Scanell et al. was employed for the initial detection and during isolation of the antimetabolite. Similar to N^5 -hydroxy-L-arginine, the diameter of the inhibition zone was proportional to the logarithm of concentration of the compound of formula I within the range of 2 to about 100 λg/ml. A two-fold increase of the concentration of the compound of formula I increased the inhibition zone diameter by 3 mm and a […] solution gave a zone of about 36 mm.
(§2) (ATCC 27860) as againt E. coli.

Escherichia coli B = assay: Paper-disc agar-diffusion assay (Scannell et al.), Escherichia coli B as test organism, minimal agar medium; assay type: cell-based
Source text: as §1, §2

mice = assay: Acute toxicity (LD50) in mice; assay type: in vivo; details: in words

C[C@](N)(CCCNC(=N)N)C(=O)O
LD50 ([1]; ip): > 1000 mg/kg | LD50 ([1]; po): > 1000 mg/kg

CC(N)(CCCN)C(=O)O (racemic) [D,L-2-methyl ornithine]
anti-fertility activity (males [2]): anti-fertility agent | inhibition of ornithine decarboxylase (ornithine decarboxylase [3]): inhibitor of ornithine decarboxylase | suppression of spermidine production (spermidine production [4]): suppresses spermidine production

C[C@](N)(CCCN)C(=O)O [L-2-methyl ornithine, 2-methyl-L-ornithine]
anti-fertility activity (males [5]): anti-fertility agent | suppression of spermidine production (spermidine production [6]): suppresses spermidine production | inhibition of ornithine decarboxylase (ornithine decarboxylase [7]): inhibitor of ornithine decarboxylase

C[C@](N)(CCCNC(=N)N)C(=O)O [compound of formula I, 2-methyl-L-arginine]
activity against Bacillus s.p. ([8]; in words): active | level of activity against Bacillus sp. (ATCC 27860) compared with E. coli ([8]; relative to E. coli): approximately the same level of activity | reversal of antibiotic activity against Escherichia coli (Escherichia coli B; by added amino acids): reversed by L-arginine, L-citrulline, L-ornithine and N^2 -acetyl-L-ornithine | activity against Escherichia coli B (Escherichia coli B; in words): active | increase of inhibition zone diameter on two-fold increase of concentration (Escherichia coli B; two-fold increase of the concentration, Escherichia coli B): 3 mm | toxicity to vertebrates (mice): relatively non-toxic
